Data: patent publication US20250114460A1, “NOVEL PLK1 DEGRADATION INDUCING COMPOUND” (UPPTHERA, INC., priority 2021, published 2025)

Key:
Assay type in all cases: cell-based
MRC-5 cell line = assay: Cell viability assay for MRC-5 cell line (EZ-Cytox); details: Homo sapiens, MRC5, 120 h; MRC-5 normal cell line, 5 days, 10000 nM to 1.52 nM; N.D. = no cytotoxicity until 10 μM; read-out: Activity: IC50 value of Exemplary Compound to MRC-5 cell line
Procedure: 4. Cell Viability Assay for MRC-5 Cell Line
(1) Culture of MRC-5 Cell Line
Passage of cultured cells was maintained within P15.
(2) Treatment of Compounds of the Present Invention
Then, it was cultured in 37° C.
(3) Cytotoxicity Experiment
CO2 incubator for 4 hours.

PLK1 = target: T1, PLK1 (Homo sapiens, UniProt P53350); assay: Luciferase assay for PLK1 in HeLa LgBit (Plk1-HiBit KI) cell line; details: 300 nM compound, luminescence after 9 hours
T1 construct: endogenous in cells; host or cells: HeLa LgBit (Plk1-HiBit KI): HeLa stably expressing LgBit, with a CRISPR/Cas9 knock-in of HiBit at the endogenous PLK1 locus
T1 sequence (P53350 whole entry): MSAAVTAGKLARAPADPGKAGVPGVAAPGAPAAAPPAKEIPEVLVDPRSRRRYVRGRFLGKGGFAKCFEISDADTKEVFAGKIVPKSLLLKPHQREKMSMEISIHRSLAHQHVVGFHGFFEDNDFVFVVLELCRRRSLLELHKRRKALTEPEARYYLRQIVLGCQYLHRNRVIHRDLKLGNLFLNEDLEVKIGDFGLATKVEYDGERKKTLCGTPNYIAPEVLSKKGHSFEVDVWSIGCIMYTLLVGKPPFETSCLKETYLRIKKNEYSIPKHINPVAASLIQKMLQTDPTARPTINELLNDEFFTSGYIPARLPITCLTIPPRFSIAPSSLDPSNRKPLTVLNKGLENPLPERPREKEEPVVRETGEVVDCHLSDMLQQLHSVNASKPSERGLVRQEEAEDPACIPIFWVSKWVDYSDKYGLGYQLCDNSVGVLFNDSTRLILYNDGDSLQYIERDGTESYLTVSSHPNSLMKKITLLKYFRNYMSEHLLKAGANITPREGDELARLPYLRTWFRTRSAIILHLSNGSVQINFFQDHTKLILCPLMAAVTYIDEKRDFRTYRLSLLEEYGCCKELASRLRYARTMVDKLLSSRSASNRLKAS
In short: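 Luminescence, followed in real time after adding compound at 300 nM and Endurazine substrate, is reported relative to DMSO-treated wells. Cells are a HeLa LgBit line with a Plk1-HiBit knock-in, synchronized by 2 mM thymidine for 24 h, released, and cultured 18 h before treatment.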

NCI-H526 cell line = assay: Cell viability assay for H526 cell (EZ-Cytox); details: Homo sapiens, NCI-H526, 120 h; H526 cells, 5 days, 3000 nM to 0.46 nM
In short: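 Read-out was EZ-Cytox colorimetric absorbance at 450 nm, taken after brief plate shaking, with IC50 derived. Before reading, H526 cells had been cultured with test compound for 5 days.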

SMILES | IC50 (MRC-5 cell line) [µM] | Activity: ratio of the luminescense value of each Exemplary Compound treatment group to DMSO treatment group (PLK1) | IC50 (NCI-H526 cell line) [µM]
COc1cc(C(=O)NC2CCN(CCOc3cccc4c3C(=O)N(C3CCC(=O)NC3=O)C4=O)CC2)ccc1Nc1ncc2c(n1)N(C1CCCC1)CC(F)(F)C(=O)N2C (stereo not drawn) [Compound 5, 4-((9-cyclopentyl-7,7-difluoro-5-methyl-6-oxo-6,7,8,9-tetrahydro-5H-pyrimido[4,5-b][1,4]diazepin-2-yl)amino)-N-(1-(2-((2-(2,6-dioxopiperidin-3-yl)-1,3-dioxoisoindolin-4-yl)oxy)ethyl)piperidin-4-yl)-3-methoxybenzamide] | 20 | ++ (++<0.6) | < 0.4
COc1cc(C(=O)N[C@H]2CC[C@H](N(C)CCCOc3cccc4c3C(=O)N(C3CCC(=O)NC3=O)C4=O)CC2)ccc1Nc1ncc2c(n1)N(C1CCCC1)CC(F)(F)C(=O)N2C (stereo partly drawn) [Compound 15, 4-((9-cyclopentyl-7,7-difluoro-5-methyl-6-oxo-6,7,8,9-tetrahydro-5H-pyrimido[4,5-b][1,4]diazepin-2-yl)amino)-N-((1r,4r)-4-((3-((2-(2,6-dioxopiperidin-3-yl)-1,3-dioxoisoindolin-4-yl)oxy)propyl)(methyl)amino)cyclohexyl)-3-methoxybenzamide] | 16.7 | ++ (++<0.6) | < 0.05
COc1cc(C(=O)NC2CCN(CCOCCOCCNc3cccc4c3CN(C3CCC(=O)NC3=O)C4=O)CC2)ccc1Nc1ncc2c(n1)N(C1CCCC1)CC(F)(F)C(=O)N2C (stereo not drawn) [Compound 18, 4-((9-cyclopentyl-7,7-difluoro-5-methyl-6-oxo-6,7,8,9-tetrahydro-5H-pyrimido[4,5-b][1,4]diazepin-2-yl)amino)-N-(1-(2-(2-(2-((2-(2,6-dioxopiperidin-3-yl)-1-oxoisoindolin-4-yl)amino)ethoxy)ethoxy)ethyl)piperidin-4-yl)-3-methoxybenzamide] | > 10 | ++ (++<0.6) | < 0.03
COc1cc(C(=O)NC2CCN(C(=O)CCCNc3cccc4c3C(=O)N(C3CCC(=O)NC3=O)C4=O)CC2)ccc1Nc1ncc2c(n1)N(C1CCCC1)CC(F)(F)C(=O)N2C (stereo not drawn) [Compound 25, 4-((9-cyclopentyl-7,7-difluoro-5-methyl-6-oxo-6,7,8,9-tetrahydro-5H-pyrimido[4,5-b][1,4]diazepin-2-yl)amino)-N-(1-(4-((2-(2,6-dioxopiperidin-3-yl)-1,3-dioxoisoindolin-4-yl)amino)butanoyl)piperidin-4-yl)-3-methoxybenzamide] | > 10 | ++ (++<0.6) | < 0.05
COc1cc(C(=O)NC2CCN(C(=O)CCCNc3cccc4c3CN(C3CCC(=O)NC3=O)C4=O)CC2)ccc1Nc1ncc2c(n1)N(C1CCCC1)CC(F)(F)C(=O)N2C (stereo not drawn) [Compound 26, 4-((9-cyclopentyl-7,7-difluoro-5-methyl-6-oxo-6,7,8,9-tetrahydro-5H-pyrimido[4,5-b][1,4]diazepin-2-yl)amino)-N-(1-(4-((2-(2,6-dioxopiperidin-3-yl)-1-oxoisoindolin-4-yl)amino)butanoyl)piperidin-4-yl)-3-methoxybenzamide] | > 10 | ++ (++<0.6) | < 0.05
COc1cc(C(=O)NC2CCN(C(=O)CCCOc3cccc4c3C(=O)N(C3CCC(=O)NC3=O)C4=O)CC2)c(F)cc1Nc1ncc2c(n1)N(C1CCCC1)CC(F)(F)C(=O)N2C (stereo not drawn) [Compound 30, 4-((9-cyclopentyl-7,7-difluoro-5-methyl-6-oxo-6,7,8,9-tetrahydro-5H-pyrimido[4,5-b][1,4]diazepin-2-yl)amino)-N-(1-(4-((2-(2,6-dioxopiperidin-3-yl)-1,3-dioxoisoindolin-4-yl)oxy)butanoyl)piperidin-4-yl)-2-fluoro-5-methoxybenzamide] | > 10 | ++ (++<0.6) | < 0.1
COc1cc(C(=O)NC2CCN(C(=O)CCCOc3cccc4c3C(=O)N(C3CCC(=O)NC3=O)C4=O)CC2)ccc1Nc1ncc2c(n1)N(C1CCCC1)CC(F)(F)C(=O)N2C (stereo not drawn) [Compound 31, 4-((9-cyclopentyl-7,7-difluoro-5-methyl-6-oxo-6,7,8,9-tetrahydro-5H-pyrimido[4,5-b][1,4]diazepin-2-yl)amino)-N-(1-(4-((2-(2,6-dioxopiperidin-3-yl)-1,3-dioxoisoindolin-4-yl)oxy)butanoyl)piperidin-4-yl)-3-methoxybenzamide] | > 10 | +++ (+++: <0.3) | < 0.1
COc1cc(C(=O)NC2CCN(C(=O)CCCOc3cccc4c3CN(C3CCC(=O)NC3=O)C4=O)CC2)ccc1Nc1ncc2c(n1)N(C1CCCC1)CC(F)(F)C(=O)N2C (stereo not drawn) [Compound 32, 4-((9-cyclopentyl-7,7-difluoro-5-methyl-6-oxo-6,7,8,9-tetrahydro-5H-pyrimido[4,5-b][1,4]diazepin-2-yl)amino)-N-(1-(4-((2-(2,6-dioxopiperidin-3-yl)-1-oxoisoindolin-4-yl)oxy)butanoyl)piperidin-4-yl)-3-methoxybenzamide] | > 10 | ++ (++<0.6) | < 0.05
COc1cc(C(=O)NC2CCN(C(=O)COc3cccc4c3C(=O)N(C3CCC(=O)NC3=O)C4=O)CC2)ccc1Nc1ncc2c(n1)N(C1CCCC1)CC(F)(F)C(=O)N2C (stereo not drawn) [Compound 38, 4-((9-cyclopentyl-7,7-difluoro-5-methyl-6-oxo-6,7,8,9-tetrahydro-5H-pyrimido[4,5-b][1,4]diazepin-2-yl)amino)-N-(1-(2-((2-(2,6-dioxopiperidin-3-yl)-1,3-dioxoisoindolin-4-yl)oxy)acetyl)piperidin-4-yl)-3-methoxybenzamide] | > 10 | ++ (++<0.6) | < 0.2
COc1cc(C(=O)N[C@@H]2CCN(C(=O)COc3cccc4c3C(=O)N(C3CCC(=O)NC3=O)C4=O)C2)ccc1Nc1ncc2c(n1)N(C1CCCC1)CC(F)(F)C(=O)N2C (stereo partly drawn) [Compound 39, 4-((9-cyclopentyl-7,7-difluoro-5-methyl-6-oxo-6,7,8,9-tetrahydro-5H-pyrimido[4,5-b][1,4]diazepin-2-yl)amino)-N-((3R)-1-(2-((2-(2,6-dioxopiperidin-3-yl)-1,3-dioxoisoindolin-4-yl)oxy)acetyl)pyrrolidin-3-yl)-3-methoxybenzamide] | > 10 | ++ (++<0.6) | < 0.1
COc1cc(C(=O)N[C@H]2CCN(C(=O)COc3cccc4c3C(=O)N(C3CCC(=O)NC3=O)C4=O)C2)ccc1Nc1ncc2c(n1)N(C1CCCC1)CC(F)(F)C(=O)N2C (stereo partly drawn) [Compound 40, 4-((9-cyclopentyl-7,7-difluoro-5-methyl-6-oxo-6,7,8,9-tetrahydro-5H-pyrimido[4,5-b][1,4]diazepin-2-yl)amino)-N-((3S)-1-(2-((2-(2,6-dioxopiperidin-3-yl)-1,3-dioxoisoindolin-4-yl)oxy)acetyl)pyrrolidin-3-yl)-3-methoxybenzamide] | > 10 | ++ (++<0.6) | < 0.2
COc1cc(C(=O)NC2CCN(C(=O)CSc3cccc4c3C(=O)N(C3CCC(=O)NC3=O)C4=O)CC2)c(F)cc1Nc1ncc2c(n1)N(C1CCCC1)CC(F)(F)C(=O)N2C (stereo not drawn) [Compound 41, 4-((9-cyclopentyl-7,7-difluoro-5-methyl-6-oxo-6,7,8,9-tetrahydro-5H-pyrimido[4,5-b][1,4]diazepin-2-yl)amino)-N-(1-(2-((2-(2,6-dioxopiperidin-3-yl)-1,3-dioxoisoindolin-4-yl)thio)acetyl)piperidin-4-yl)-2-fluoro-5-methoxybenzamide] | > 10 | ++ (++<0.6) | < 0.2
COc1cc(C(=O)NC2CCN(C(=O)CC3CCN(c4cccc5c4C(=O)N(C4CCC(=O)NC4=O)C5=O)C3)CC2)c(F)cc1Nc1ncc2c(n1)N(C1CCCC1)CC(F)(F)C(=O)N2C (stereo not drawn) [Compound 44, 4-((9-cyclopentyl-7,7-difluoro-5-methyl-6-oxo-6,7,8,9-tetrahydro-5H-pyrimido[4,5-b][1,4]diazepin-2-yl)amino)-N-(1-(2-(1-(2-(2,6-dioxopiperidin-3-yl)-1,3-dioxoisoindolin-4-yl)pyrrolidin-3-yl)acetyl)piperidin-4-yl)-2-fluoro-5-methoxybenzamide] | > 10 | ++ (++<0.6) | < 0.1
COc1cc(C(=O)NC2CCN(C(=O)CC3CCN(c4ccc5c(c4)C(=O)N(C4CCC(=O)NC4=O)C5=O)C3)CC2)c(F)cc1Nc1ncc2c(n1)N(C1CCCC1)CC(F)(F)C(=O)N2C (stereo not drawn) [Compound 45, 4-((9-cyclopentyl-7,7-difluoro-5-methyl-6-oxo-6,7,8,9-tetrahydro-5H-pyrimido[4,5-b][1,4]diazepin-2-yl)amino)-N-(1-(2-(1-(2-(2,6-dioxopiperidin-3-yl)-1,3-dioxoisoindolin-5-yl)pyrrolidin-3-yl)acetyl)piperidin-4-yl)-2-fluoro-5-methoxybenzamide] | > 10 | ++ (++<0.6) | < 0.1
